Measured values published in US6599893B2, “Cephalosporin antibiotics and prodrugs thereof” (Essential Therapeutics, Inc., priority 2000, dated 2003).
In brackets after ≈: the same amount, converted by molar mass.

Legend:
Type in all cases: cell-based
[1] = test system: Staphylococcus aureus Smith (MSSA); experiment: Broth microdilution MIC, S. aureus Smith; conditions: Staphylococcus aureus Smith (MSSA); for MIC: read-out: MIC S. a. Smith
Experimental: (§1) Compounds were evaluated for antimicrobial activity against a panel of bacterial strains using a broth microdilution assay performed as recommended by the NCCLS (NCCLS (National Committee for Clinical Laboratory Standards). 1993. Methods for dilution antimicrobial susceptibility tests for bacteria that grow aerobically. NCCLS Document M7-A3, 1993. In: NCCLS Antimicrobial Susceptibility Testing, 3rd Ed.)
(§2) The minimum inhibitory concentration (MIC) is defined as the lowest concentration of a compound that prevents the growth of the bacteria.

[2] = test system: Staphylococcus aureus ATCC 29213 (MSSA); experiment: Broth microdilution MIC, S. aureus ATCC 29213; conditions: Staphylococcus aureus ATCC 29213 (MSSA); for MIC: read-out: MIC S. a. 29213
Experimental: as §1, §2

[3] = test system: Staphylococcus aureus COL (MRSA, non-β-lactamase producing); experiment: Broth microdilution MIC, S. aureus COL; conditions: Staphylococcus aureus COL (MRSA, non-β-lactamase producing); for MIC: read-out: MIC S. a. COL
Experimental: as §1, §2

[4] = test system: Staphylococcus aureus 76 (MRSA, β-lactamase producing); experiment: Broth microdilution MIC, S. aureus 76; conditions: Staphylococcus aureus 76 (MRSA, β-lactamase producing); for MIC: read-out: MIC S. a. 76
Experimental: as §1, §2

[5] = test system: Enterococcus faecalis ATCC 29212; experiment: Broth microdilution MIC, E. faecalis ATCC 29212; conditions: Enterococcus faecalis ATCC 29212; for MIC: ATCC29212, read-out: MIC E. f. 29212
Experimental: as §1, §2

[6] = test system: Enterococcus faecium ATCC 35667; experiment: Broth microdilution MIC, E. faecium ATCC 35667; conditions: Enterococcus faecium ATCC 35667; for MIC: ATCC35667, read-out: MIC E. f. 35667
Experimental: as §1, §2

| SMILES | MIC [1] [µg/mL] | MIC [2] [µg/mL] | MIC [3] [µg/mL] | MIC [4] [µg/mL] | MIC [5] [µg/mL] | MIC [6] [µg/mL] | MIC S. a. 29213 [2] [µg/mL] | MIC S. a. COL [3] [µg/mL] | MIC S. a. 76 [4] [µg/mL] | MIC E. f. 29212 [5] [µg/mL] | MIC E. f. 35667 [6] [µg/mL] | MIC S. a. Smith [1] [µg/mL] |
| --- | --- | --- | --- | --- | --- | --- | --- | --- | --- | --- | --- | --- |
| Nc1nc(/C(=N/OCCF)C(=O)N[C@@H]2C(=O)N3C(C(=O)O)=C(Sc4ccnn4-c4ccccc4)CS[C@H]23)c(Cl)s1 [Compound 16] | 0.5 (≈ 0.801 µM) | 0.5 (≈ 0.801 µM) | 2 (≈ 3.2 µM) | 4 (≈ 6.41 µM) | 1 (≈ 1.6 µM) | 4 (≈ 6.41 µM) | – | – | – | – | – | – |
| Nc1nc(C(=NO)C(=O)N[C@@H]2C(=O)N3C(C(=O)O)=C(Sc4nc(Cl)ns4)CSC23)c(Cl)s1 (stereo partly drawn) [Compound 52, (7R)-7-[2-(2-Amino-5-chlorothiazol-4-yl)-2-hydroxyiminoacetylamino]-3-(3-chloro-[1,2,4]thiadiazol-5-ylsulfanyl)-8-oxo-5-thia-1-aza-bicyclo[4.2.0]oct-2-ene-2-carboxylic acid] | – | 0.25 (≈ 0.451 µM) | 1 (≈ 1.8 µM) | 2 (≈ 3.61 µM) | 0.25 (≈ 0.451 µM) | 1 (≈ 1.8 µM) | – | – | – | – | – | – |
| C=CCO/N=C(\C(=O)N[C@@H]1C(=O)N2C(C(=O)O)=C(Sc3ccnn3-c3ccccc3)CS[C@H]12)c1csc(N)n1 [Compound 20] | 0.5 (≈ 0.857 µM) | 1 (≈ 1.71 µM) | 8 (≈ 13.7 µM) | 16 (≈ 27.4 µM) | 32 (≈ 54.8 µM) | 32 (≈ 54.8 µM) | – | – | – | – | – | – |
| Nc1nc(C(=NO)C(=O)N[C@@H]2C(=O)N3C(C(=O)O)=C(Sc4nnco4)CSC23)c(Cl)s1 (stereo partly drawn) [Compound 48, (7R)-7-[2-(2-Amino-5-chlorothiazol-4-yl)-2-hydroxyiminoacetylamino]-3-([1,3,4]oxadiazol-2-ylsulfanyl)-8-oxo-5-thia-1-aza-bicyclo[4.2.0]oct-2-ene-2-carboxylic acid] | – | 0.25 (≈ 0.496 µM) | 2 (≈ 3.97 µM) | 2 (≈ 3.97 µM) | 0.25 (≈ 0.496 µM) | 1 (≈ 1.98 µM) | – | – | – | – | – | – |
| CC(C)(C)O/N=C(\C(=O)N[C@@H]1C(=O)N2C(C(=O)O)=C(Sc3ccnn3-c3ccccc3)CS[C@H]12)c1csc(N)n1 [Compound 18] | 1 (≈ 1.67 µM) | 1 (≈ 1.67 µM) | 8 (≈ 13.3 µM) | 16 (≈ 26.7 µM) | 2 (≈ 3.33 µM) | 16 (≈ 26.7 µM) | – | – | – | – | – | – |
| Nc1nc(C(=NO)C(=O)N[C@@H]2C(=O)N3C(C(=O)O)=C(Sc4nnc(N)s4)CSC23)cs1 (stereo partly drawn) [Compound 49, 3-(5-Amino-[1,3,4]thiadiazol-2-ylsulfanyl)-(7R)-7-[2-(2-aminothiazol-4-yl)-2-hydroxyiminoacetylamino]-8-oxo-5-thia-1-aza-bicyclo[4.2.0]oct-2-ene-2-carboxylic acid] | – | 0.25 (≈ 0.499 µM) | 4 (≈ 7.99 µM) | 8 (≈ 16 µM) | 0.5 (≈ 0.999 µM) | 1 (≈ 2 µM) | – | – | – | – | – | – |
| Nc1nsc(SC2=C(C(=O)O)N3C(=O)[C@@H](NC(=O)C(=NO)c4nc(N)sc4Cl)C3SC2)n1 (stereo partly drawn) [Compound 47, (7R)-7-[2-(2-Amino-5-chlorothiazol-4-yl)-2-hydroxyiminoacetylamino]-3-(3-amino-[1,2,4]thiadiazol-5-ylsulfanyl)-8-oxo-5-thia-1-aza-bicyclo[4.2.0]oct-2-ene-2-carboxylic acid] | 0.25 (≈ 0.467 µM) | 0.125 (≈ 0.234 µM) | 0.5 (≈ 0.935 µM) | 1 (≈ 1.87 µM) | 0.125 (≈ 0.234 µM) | 0.5 (≈ 0.935 µM) | – | – | – | – | – | – |
| CON=C(C(=O)NC1C(=O)N2C(C(=O)O)=C(Sc3ccccc3Br)CSC12)c1csc(N)n1 (stereo not drawn) [Compound 5] | – | – | – | – | – | – | 0.5 (≈ 0.876 µM) | 16 (≈ 28 µM) | 16 (≈ 28 µM) | >32 | 32 (≈ 56.1 µM) | – |
| Cc1nnc(SC2=C(C(=O)O)N3C(=O)[C@@H](NC(=O)/C(=N\O)c4nc(N)sc4Cl)[C@H]3SC2)s1 [Compound 33] | – | – | – | – | – | – | 1 (≈ 1.87 µM) | 4 (≈ 7.49 µM) | 8 (≈ 15 µM) | 1 (≈ 1.87 µM) | 4 (≈ 7.49 µM) | 0.5 (≈ 0.936 µM) |
| Nc1nc(C(=NO)C(=O)NC2C(=O)N3C(C(=O)O)=C(Sc4ccccc4-c4ccccc4)CSC23)cs1 (stereo not drawn) [Compound 10] | – | – | – | – | – | – | 0.5 (≈ 0.903 µM) | 4 (≈ 7.22 µM) | 8 (≈ 14.4 µM) | 2 (≈ 3.61 µM) | 2 (≈ 3.61 µM) | – |
| Nc1nc(CC(=O)N[C@@H]2C(=O)N3C(C(=O)O)=C(Sc4nnc(N)s4)CSC23)cs1 (stereo partly drawn) [Compound 51, 3-(5-Amino-[1,3,4]thiadiazol-2-ylsulfanyl)-(7R)-7-[2-(2-amino-thiazol-4-yl)-acetylamino]-8-oxo-5-thia-1-aza-bicyclo[4.2.0]oct-2-ene-2-carboxylic acid] | 0.06 (≈ 0.127 µM) | 0.125 (≈ 0.265 µM) | 4 (≈ 8.48 µM) | 16 (≈ 33.9 µM) | 2 (≈ 4.24 µM) | 4 (≈ 8.48 µM) | – | – | – | – | – | – |
| Nc1nc(/C(=N/O)C(=O)N[C@@H]2C(=O)N3C(C(=O)O)=C(Sc4ccnn4-c4ccccc4)CS[C@H]23)cs1 [Compound 15] | – | 1 (≈ 1.84 µM) | 16 (≈ 29.4 µM) | 32 (≈ 58.9 µM) | 2 (≈ 3.68 µM) | 8 (≈ 14.7 µM) | – | – | – | – | – | – |
